# Measured values reported in patent US20090035758A1, “Method of Measurement of Micronucleated Erythrocyte Populations” (BECKMAN COULTER, INC., priority 2007, published 2009).
# Tested on: micronucleated reticulocytes (MNPCE) in mouse peripheral blood
# Settings: in vivo, 50 mg/kg, 24 h
# Protocol: 200 to 300 μl of a peripheral blood sample was collected from a mouse using orbital veinipuncture into a test tube containing heparin. The sample was kept at room temperature for analysis.
# 10 μl of the anticoagulated blood sample was diluted with 290 μl of the isotonic diluent of Example 1 in a test tube. 10 μl of anti CD71-FITC monoclonal antibody at saturating concentration was added into the diluted blood, and the test tube was vortexed and then incubated at room temperature for 30 minutes. 20 μl of the diluted sample containing anti CD71-FITC antibody was taken into a second test tube, and 400 μl of the permeation reagent of Example 1 was added and vortexed immediately. The formed permeation sample mixture was incubated at room temperature for 10 minutes. […]
# The final sample mixture was analyzed on a FC500 MCL cytometer (Beckman Coulter, Inc., Fullerton, Calif.). […]
# Both FL1 and FL4 were in a logarithmic scale. FL1 and FL4 were the fluorescent signals of the final sample mixture detected at 525 nm and 675 nm, respectively. […]
# A mouse was treated with methyl methane sulfonate with a dosage of 50 mg/Kg 24 hours prior to the blood collection. The peripheral blood was collected and processed as described in Example 2, and the final sample mixture was analyzed on the same FC500 MCL cytometer with the identical instrument setting.
structure (smiles),measurement,value
COS(C)(=O)=O [methyl methane sulfonate],micronucleated reticulocytes (percentage of reticulocytes containing micronuclei),1.30%
